Consider 19 compounds from patent US12157746B2, “Tetrahydro-1H-pyrazino[2,1-a]isoindolylquinoline compounds for the treatment of autoimmune disease” (F. HOFFMANN-LA ROCHE AG, priority 2018, dated 2024).

For this assay, the target named is T1, human TLR9 (Homo sapiens, UniProt Q9NR96).
T1 sequence (Q9NR96 26-1032): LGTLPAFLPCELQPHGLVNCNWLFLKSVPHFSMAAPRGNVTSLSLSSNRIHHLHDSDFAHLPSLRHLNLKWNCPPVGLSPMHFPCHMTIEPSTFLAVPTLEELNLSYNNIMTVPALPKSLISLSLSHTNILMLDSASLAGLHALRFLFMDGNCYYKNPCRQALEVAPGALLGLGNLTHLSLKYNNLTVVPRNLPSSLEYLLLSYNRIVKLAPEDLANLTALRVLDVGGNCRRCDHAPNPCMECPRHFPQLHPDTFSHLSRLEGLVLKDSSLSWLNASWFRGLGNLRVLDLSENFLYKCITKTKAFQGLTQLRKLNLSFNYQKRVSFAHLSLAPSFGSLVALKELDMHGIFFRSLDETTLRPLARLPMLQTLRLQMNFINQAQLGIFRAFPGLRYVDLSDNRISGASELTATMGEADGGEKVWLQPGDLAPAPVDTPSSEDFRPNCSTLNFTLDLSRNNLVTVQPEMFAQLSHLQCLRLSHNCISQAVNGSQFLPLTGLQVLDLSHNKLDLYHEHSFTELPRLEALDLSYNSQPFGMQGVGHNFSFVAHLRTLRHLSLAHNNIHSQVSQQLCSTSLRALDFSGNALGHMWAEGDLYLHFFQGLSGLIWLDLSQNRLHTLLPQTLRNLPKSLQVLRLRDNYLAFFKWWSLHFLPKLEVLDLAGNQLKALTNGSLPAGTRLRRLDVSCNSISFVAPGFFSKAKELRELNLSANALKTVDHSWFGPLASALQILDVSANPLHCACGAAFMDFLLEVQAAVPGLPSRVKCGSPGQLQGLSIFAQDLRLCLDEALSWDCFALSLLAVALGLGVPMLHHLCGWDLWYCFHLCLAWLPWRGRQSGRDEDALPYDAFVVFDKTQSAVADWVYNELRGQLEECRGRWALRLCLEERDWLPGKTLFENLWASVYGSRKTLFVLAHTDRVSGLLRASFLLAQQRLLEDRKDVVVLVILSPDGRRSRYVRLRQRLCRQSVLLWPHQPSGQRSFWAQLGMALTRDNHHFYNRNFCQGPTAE
As to the kind of experiment: HEK293-Blue-hTLR-9 cells assay. It counts as cell-based. The conditions noted are these: HEK293-Blue-hTLR9 cells, ODN2006 stimulation, 20 hrs, SEAP reporter; read-out: HEK/hTLR9 IC50. From the text:
HEK293-Blue-hTLR-9 Cells Assay:
A stable HEK293-Blue-hTLR-9 cell line was purchased from InvivoGen (Cat. #: hkb-htlr9, San Diego. California USA). These cells were originally designed for studying the stimulation of human TLR9 by monitoring the activation of NF-κB. A SEAP (secreted embryonic alkaline phosphatase) reporter gene was placed under the control of the IFN-β minimal promoter fused to five NF-κB and AP-1-binding sites. The SEAP was induced by activating NF-κB and AP-1 via stimulating HEK-Blue hTLR9 cells with TLR9 ligands. Therefore the reporter expression was declined by TLR9 antagonist under the stimulation of a ligand, such as ODN2006 (Cat. #: tlrl-2006-1, Invivogen, San Diego, California USA), for incubation of 20 hrs. The cell culture supernatant SEAP reporter activity was determined using QUANTI-Blue™ kit (Cat. #: rep-qb1, Invivogen, San Diego, California, USA) at a wavelength of 640 nm, a detection medium that turns purple or blue in the presence of alkaline phosphatase.
HEK293-Blue-hTLR9 cells were incubated at a density of 250.000-450,000 cells/mL in a volume of 170 μL in a 96-well plate in Dulbecco's Modified Eagle's medium (DMEM) containing 4.5 g/L glucose, 50 U/mL penicillin, […], […], 2 mM L-glutamine, 10% (v/v) heat-inactivated fetal bovine serum with addition of 20 μL test compound 1n a serial dilution in the presence of final DMSO at 1% and 10 μL of 20 uM ODN2006 in above DMEM, perform incubation under 37° C. in a CO2 incubator for 20 hrs. Then 20 μL of the supernatant from each well was incubated with 180 μL Quanti-blue substrate solution at 37° C. for 2 h and the absorbance was read at 620˜655 nm using a spectrophotometer. The signaling pathway that TLR9 activation leads to downstream NF-κB activation has been widely accepted, and therefore similar reporter assay was modified for evaluating TLR9 antagonist.
For the compound `CN[C@@H]1CN(c2ccc3c(c2)CN2[C@H](C)CN(c4ccc(C#N)c5ncccc45)C[C@H]32)C[C@H]1O` [Example 43, 5-[(4R,10bS)-4-methyl-8-[(3R,4R)-3-hydroxy-4-(methylamino)pyrrolidin-1-yl]-3,4,6,10b-tetrahydro-1H-pyrazino[2,1-a]isoindol-2-yl]quinoline-8-carbonitrile], the IC50 amounted to 55.5 nM. For `C[C@@H]1CN(c2ccc(C#N)n3nccc23)C[C@@H]2c3ccc(N4CC[C@@](C)(N)C4)cc3CN12` [Example 103, 4-[(4R,10bS)-8-[(3R)-3-amino-3-methyl-pyrrolidin-1-yl]-4-methyl-3,4,6,10b-tetrahydro-1H-pyrazino[2,1-a]isoindol-2-yl]pyrazolo[1,5-a]pyridine-7-carbonitrile] the value was 142 nM. Under `CO[C@@H]1CN(c2ccc3c(c2)CN2[C@H](C)CN(c4ccc(C#N)n5nccc45)C[C@H]32)CC[C@H]1N` [Example 104, 4-[(4R,10bS)-8-[(3R,4R)-4-amino-3-methoxy-1-piperidyl]-4-methyl-3,4,6,10b-tetrahydro-1H-pyrazino[2,1-a]isoindol-2-yl]pyrazolo[1,5-a]pyridine-7-carbonitrile] stands 90.3 nM; under `C[C@@H]1CN(c2ccc(C#N)c3ncccc23)C[C@@H]2c3ccc(NC4CNC4)cc3CN12` [Example 28, 5-[(4R,10S)-8-(azetidin-3-ylamino)-4-methyl-3,4,6,10b-tetrahydro-1H-pyrazino[2,1-a]isoindol-2-yl]quinoline-8-carbonitrile], 83.4 nM. In the case of `C[C@@H]1CN(c2ccc(C#N)c3ncccc23)C[C@@H]2c3ccc(N4CC5(CN(C)C5)C4)cc3CN12` [Example 38, 5-[(4R,10bS)-4-methyl-8-(6-methyl-2,6-diazaspiro[3.3]heptan-2-yl)-3,4,6,10b-tetrahydro-1H-pyrazino[2,1-a]isoindol-2-yl]quinoline-8-carbonitrile], the IC50 is 66.8 nM. For `C[C@@H]1CN(c2ccc(C#N)c3ncccc23)C[C@@H]2c3ccc(N4C[C@@H](F)[C@@H](N)C4)cc3CN12` [Example 46, 5-[(4R,10bS)-8-[(3S,4R)-3-amino-4-fluoro-pyrrolidin-1-yl]-4-methyl-3,4,6,10b-tetrahydro-1H-pyrazino[2,1-a]isoindol-2-yl]quinoline-8-carbonitrile] the value was 144 nM; for `C[C@@H]1CN(c2ccc(C#N)n3nccc23)C[C@@H]2c3ccc(N4CCOC[C@H](N)C4)cc3CN12` [Example 101, 4-[(4R,10bS)-8-[(6R)-6-amino-1,4-oxazepan-4-yl]-4-methyl-3,4,6,10b-tetrahydro-1H-pyrazino[2,1-a]isoindol-2-yl]pyrazolo[1,5-a]pyridine-7-carbonitrile], 165 nM; for `C[C@@H]1CN(c2ccc(C#N)c3ncsc23)C[C@@H]2c3ccc(N4CCNCC4)cc3CN12` [Example 6, 7-[(4R,10bS)-4-methyl-8-piperazin-1-yl-3,4,6,10b-tetrahydro-1H-pyrazino[2,1-a]isoindol-2-yl]-1,3-benzothiazole-4-carbonitrile], 156 nM. Under `C[C@@H]1CN(c2ccc(C#N)c3ncccc23)C[C@@H]2c3ccc(N4C[C@H](N)[C@@](C)(O)C4)cc3CN12` [Example 45B, 5-[(4R,10bS)-8-[(3S,4S)-4-amino-3-hydroxy-3-methyl-pyrrolidin-1-yl]-4-methyl-3,4,6,10b-tetrahydro-1H-pyrazino[2,1-a]isoindol-2-yl]quinoline-8-carbonitrile] stands 74.1 nM; under `C[C@@H]1CN(c2ccc(C#N)c3ncccc23)C[C@@H]2c3ccc(N4CCNC[C@H]4CO)cc3CN12` [Example 11, 5-[(4R,10S)-8-[(2S)-2-(hydroxymethyl)piperazin-1-yl]-4-methyl-3,4,6,10b-tetrahydro-1H-pyrazino[2,1-a]isoindol-2-yl]quinoline-8-carbonitrile], 92 nM. Under `C[C@@H]1CN(c2ccc(C#N)c3ncccc23)C[C@@H]2c3ccc(N4CCOCC(N)C4)cc3CN12` (stereo partly drawn) [Example 54, 5-[(4R,10bS)-8-(6-amino-1,4-oxazepan-4-yl)-4-methyl-3,4,6,10b-tetrahydro-1H-pyrazino[2,1-a]isoindol-2-yl]quinoline-8-carbonitrile] stands 63.6 nM; under `C[C@@H]1CN(c2ccc(C#N)n3nccc23)C[C@@H]2c3ccc(N4C[C@H](N)[C@@H](O)C4)cc3CN12` [Example 111, 4-[(4R,10bS)-8-[(3S,4S)-3-amino-4-hydroxy-pyrrolidin-1-yl]-4-methyl-3,4,6,10b-tetrahydro-1H-pyrazino[2,1-a]isoindol-2-yl]pyrazolo[1,5-a]pyridine-7-carbonitrile], 38 nM; under `C[C@@H]1CN(c2ccc(C#N)c3ncccc23)C[C@@H]2c3cccc(N4CCNCC4)c3CN12` [Example 8, 5-[(4R,10bS)-4-methyl-7-piperazin-1-yl-3,4,6,10b-tetrahydro-1H-pyrazino[2,1-a]isoindol-2-yl]quinoline-8-carbonitrile], 150 nM.

Regarding `C[C@@H]1CN(c2ccc(C#N)c3ncccc23)C[C@@H]2c3ccc(OCCN(C)C)cc3CN12` [Example 25, 5-[(4R,10bS)-8-[2-(dimethylamino)ethoxy]-4-methyl-3,4,6,10b-tetrahydro-1H-pyrazino[2,1-a]isoindol-2-yl]quinoline-8-carbonitrile], the IC50 amounted to 116 nM.

For `C[C@@H]1CN(c2ccc(C#N)c3ncccc23)C[C@@H]2c3ccc(N4CCC(C)(N)CC4)cc3CN12` [Example 51, 5-[(4R,10bS)-8-(4-amino-4-methyl-1-piperidyl)-4-methyl-3,4,6,10b-tetrahydro-1H-pyrazino[2,1-a]isoindol-2-yl]quinoline-8-carbonitrile], the IC50 was determined as 139 nM. For the compound `C[C@@H]1CN(c2ccc(C#N)n3nccc23)C[C@@H]2c3ccc(N4CC5CNCC(C4)O5)cc3CN12` [Example 107, 4-[(4R,10bS)-4-methyl-8-(9-oxa-3,7-diazabicyclo[3.3.1]nonan-3-yl)-3,4,6,10b-tetrahydro-1H-pyrazino[2,1-a]isoindol-2-yl]pyrazolo[1,5-a]pyridine-7-carbonitrile], the IC50 was 67.9 nM.

Take `C[C@@H]1CN(c2ccc(C#N)c3ncccc23)C[C@@H]2c3ccc(N4C[C@H](N)[C@@H](O)C4)cc3CN12` [Example 40A, 5-[(4R,10bS)-8-[(3S,4S)-3-amino-4-hydroxy-pyrrolidin-1-yl]-4-methyl-3,4,6,10b-tetrahydro-1H-pyrazino[2,1-a]isoindol-2-yl]quinoline-8-carbonitrile]: the IC50 turned out to be 59.5 nM. Under `C[C@@H]1CN(c2ccc(C#N)c3ncccc23)C[C@@H]2c3ccc(N4CC5CNCC(C4)O5)cc3CN12` [Example 14, 5-[(4R,10bS)-4-methyl-8-(9-oxa-3,7-diazabicyclo[3.3.1]nonan-3-yl)-3,4,6,10b-tetrahydro-1H-pyrazino[2,1-a]isoindol-2-yl]quinoline-8-carbonitrile] stands 81.1 nM.

With `C[C@@H]1CN(c2ccc(C#N)c3ncccc23)C[C@@H]2c3ccc(N4C[C@@H](N)[C@](C)(O)C4)cc3CN12` [Example 45A, 5-[(4R,10bS)-8-[(3R,4R)-4-amino-3-hydroxy-3-methyl-pyrrolidin-1-yl]-4-methyl-3,4,6,10b-tetrahydro-1H-pyrazino[2,1-a]isoindol-2-yl]quinoline-8-carbonitrile], the IC50 was 78.3 nM.
